Measured values: patent publication US12209102B2, “Heterocyclic compounds and uses thereof” (Kumquat Biosciences Inc., priority 2022, dated 2025)

Experiments:
K-Ras WT = biological target: T1, K-Ras WT (Homo sapiens, UniProt P01116); experiment: HTRF resonance energy transfer assay, K-Ras WT / SOS1 interaction; assay type: biochemical; details: HTRF assay of Example 5; read-out: IC50 against K-Ras WT
T1 construct: made in house; host or cells: E. coli BL21 (DE3)
Summary of the method: (§1)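 GST-tagged K-Ras (WT or mutant) bound to anti-GST-Eu donor was mixed with His-hSOS1 bound to anti-6His-XL665 acceptor in ~5 mM HEPES pH 7.4, 150 mM NaCl, 1 mM DTT, 0.05% BSA, 0.0025% Igepal. HTRF (ex 337, em 620/665 nm) was read after ~10 min or longer. IC50 came from the 665/620 ratio over duplicates from 10 μM to 0.01 μM.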

K-Ras G12V = biological target: T2, K-Ras G12V (Homo sapiens, UniProt P01116, G12V); experiment: HTRF resonance energy transfer assay, K-Ras G12V / SOS1 interaction; assay type: biochemical; details: HTRF assay of Example 5; read-out: IC50 against K-Ras G12V
T2 construct: made in house; host or cells: E. coli BL21 (DE3)
T2 sequence (P01116 1-188 isoform P01116-2 G12V): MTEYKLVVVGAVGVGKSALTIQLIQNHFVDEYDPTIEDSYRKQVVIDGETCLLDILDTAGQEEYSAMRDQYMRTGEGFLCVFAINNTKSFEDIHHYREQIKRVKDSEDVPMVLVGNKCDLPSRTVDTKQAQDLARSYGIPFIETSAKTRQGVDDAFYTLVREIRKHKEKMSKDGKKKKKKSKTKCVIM
Summary of the method: as §1

K-Ras G12S = biological target: T3, K-Ras G12S (Homo sapiens, UniProt P01116, G12S); experiment: HTRF resonance energy transfer assay, K-Ras G12S / SOS1 interaction; assay type: biochemical; details: HTRF assay of Example 5; read-out: IC50 against K-Ras G12S
T3 construct: made in house; host or cells: E. coli BL21 (DE3)
T3 sequence (P01116 1-188 isoform P01116-2 G12S): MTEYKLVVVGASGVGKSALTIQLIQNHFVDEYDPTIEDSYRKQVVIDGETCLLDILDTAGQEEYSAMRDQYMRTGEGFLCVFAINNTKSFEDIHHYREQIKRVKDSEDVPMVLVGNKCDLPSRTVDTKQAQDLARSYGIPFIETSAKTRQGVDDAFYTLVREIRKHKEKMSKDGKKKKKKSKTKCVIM
Summary of the method: as §1

K-Ras G12D = biological target: T4, K-Ras G12D (Homo sapiens, UniProt P01116, G12D); experiment: HTRF resonance energy transfer assay, K-Ras G12D / SOS1 interaction; assay type: biochemical; details: HTRF assay of Example 5; read-out: IC50 against K-Ras G12D
T4 construct: made in house; host or cells: E. coli BL21 (DE3)
T4 sequence (P01116 1-188 isoform P01116-2 G12D): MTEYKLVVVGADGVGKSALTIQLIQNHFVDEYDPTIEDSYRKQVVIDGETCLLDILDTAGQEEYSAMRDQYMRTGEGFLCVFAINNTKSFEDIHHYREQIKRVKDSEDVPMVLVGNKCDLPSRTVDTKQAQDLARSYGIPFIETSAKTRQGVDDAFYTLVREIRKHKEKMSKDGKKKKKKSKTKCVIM
Summary of the method: as §1

GP2D cells = experiment: Ras cellular assay, growth of cells with K-Ras G12D mutation (CellTiter-Glo); assay type: cell-based; details: cell growth, Example 9, G12D mutation, read-out: IC50 against GP2D cells
A549 cells = experiment: Ras cellular assay, growth of cells with K-Ras G12S mutation (CellTiter-Glo); assay type: cell-based; details: Homo sapiens, cell growth, Example 9, G12S mutation, read-out: IC50 against A549 cells
Summary of the method: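 A549 cells (K-Ras G12S) in RPMI-1640 with 10% heat-inactivated FBS, seeded e.g. 800 per well in standard or ultra-low-attachment 384-well plates, treated next day with a dilution series (e.g. 10-point, 3-fold). Viability by CellTiter-Glo luminescence about 6 days later; IC50 from four-parameter fit.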

SW620 cells = experiment: Ras cellular assay, growth of cells with K-Ras G12V mutation (CellTiter-Glo); assay type: cell-based; details: Homo sapiens, SW-620; cell growth, Example 9, G12V mutation; read-out: IC50 against SW620 cells
Summary of the method: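 SW620 (K-Ras G12V) cells, e.g. 800/well in RPMI-1640 with 10% heat-inactivated FBS on standard or ultra-low attachment plates, were dosed the day after plating with e.g. a 10-point 3-fold series. Viability by CellTiter-Glo luminescence about 6 days later; IC50 from four-parameter fit.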

T1 sequence (P01116 1-188 isoform P01116-2): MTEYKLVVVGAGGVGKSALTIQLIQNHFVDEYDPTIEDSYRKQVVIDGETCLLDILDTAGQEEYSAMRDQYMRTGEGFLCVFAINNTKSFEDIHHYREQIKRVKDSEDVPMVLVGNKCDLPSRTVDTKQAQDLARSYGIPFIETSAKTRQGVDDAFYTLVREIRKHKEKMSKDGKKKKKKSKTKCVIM

Row | IC50 (K-Ras WT) [nM] | IC50 (K-Ras G12V) [nM] | IC50 (K-Ras G12S) [nM] | IC50 (K-Ras G12D) [nM] | IC50 (A549 cells) [nM] | IC50 (SW620 cells) [nM] | SMILES | IC50 (GP2D cells) [nM]
1 | < 100 | < 100 | < 100 | < 100 | < 5000 | < 5000 | CN1CCC(N2CCOc3c(Cl)c(-c4ccc(F)c5sc(N)c(C#N)c45)c(F)c4nc(OC[C@@]56CCCN5C[C@H](F)C6)nc2c34)C1=O (stereo partly drawn) [Compound 624, 2-amino-4-(8-chloro-10-fluoro-2-(((2R,7aS)-2-fluorotetrahydro-1H-pyrrolizin-7a(5H)-yl)methoxy)-4-(1-methyl-2-oxopyrrolidin-3-yl)-5,6-dihydro-4H-[1,4]oxazepino[5,6,7-de]quinazolin-9-yl)-7-fluorobenzo[b]thiophene-3-carbonitrile] | < 500
2 | < 100 | < 100 | < 100 | < 100 | < 5000 | < 5000 | C[C@H]1COc2c(Cl)c(-c3ccc(F)c4sc(N)c(C#N)c34)c(F)c3nc(OC[C@@]45CCCN4C[C@H](F)C5)nc(c23)N1CCC(F)F [Compound 835, 2-amino-4-((5S)-8-chloro-4-(3,3-difluoropropyl)-10-fluoro-2-(((2R,7aS)-2-fluorotetrahydro-1H-pyrrolizin-7a(5H)-yl)methoxy)-5-methyl-5,6-dihydro-4H-[1,4]oxazepino[5,6,7-de]quinazolin-9-yl)-7-fluorobenzo[b]thiophene-3-carbonitrile] | < 500
3 | < 100 | < 100 | < 100 | < 100 | < 5000 | < 5000 | N#Cc1c(N)sc2c(F)ccc(-c3c(Cl)c4c5c(nc(OC[C@@]67CCCN6C[C@H](F)C7)nc5c3F)N(C3CCOC3)CCO4)c12 (stereo partly drawn) [Compound 688, 2-amino-4-(8-chloro-10-fluoro-2-(((2R,7aS)-2-fluorotetrahydro-1H-pyrrolizin-7a(5H)-yl)methoxy)-4-(tetrahydrofuran-3-yl)-5,6-dihydro-4H-[1,4]oxazepino[5,6,7-de]quinazolin-9-yl)-7-fluorobenzo[b]thiophene-3-carbonitrile] | < 500
4 | < 100 | < 100 | < 100 | < 100 | < 5000 | < 5000 | CN(C)C1(CN2CCOc3c(Cl)c(-c4ccc(F)c5sc(N)c(C#N)c45)c(F)c4nc(OC[C@@]56CCCN5C[C@H](F)C6)nc2c34)CCCC1 [Compound 1062, 2-amino-4-(8-chloro-4-((1-(dimethylamino)cyclopentyl)methyl)-10-fluoro-2-(((2R,7aS)-2-fluorotetrahydro-1H-pyrrolizin-7a(5H)-yl)methoxy)-5,6-dihydro-4H-[1,4]oxazepino[5,6,7-de]quinazolin-9-yl)-7-fluorobenzo[b]thiophene-3-carbonitrile] | < 500
5 | < 100 | < 100 | < 100 | < 100 | < 5000 | < 5000 | N#Cc1c(N)sc2c(F)ccc(-c3c(Cl)c4c5c(nc(OC[C@@]67CCCN6C[C@H](F)C7)nc5c3F)N(C3CCC(OC(F)F)C3)CCO4)c12 (stereo partly drawn) [Compound 740, 2-amino-4-(8-chloro-4-(3-(difluoromethoxy)cyclopentyl)-10-fluoro-2-(((2R,7aS)-2-fluorotetrahydro-1H-pyrrolizin-7a(5H)-yl)methoxy)-5,6-dihydro-4H-[1,4]oxazepino[5,6,7-de]quinazolin-9-yl)-7-fluorobenzo[b]thiophene-3-carbonitrile] | < 500
6 | < 100 | < 100 | < 100 | < 100 | < 5000 | < 5000 | N#Cc1c(N)sc2c(F)ccc(-c3c(Cl)c4c5c(nc(OC[C@@]67CCCN6C[C@H](F)C7)nc5c3F)N(C3CC35CN(C=O)C5)CCO4)c12 (stereo partly drawn) [Compound 957, 2-amino-4-(8-chloro-10-fluoro-2-(((2R,7aS)-2-fluorotetrahydro-1H-pyrrolizin-7a(5H)-yl)methoxy)-4-(5-formyl-5-azaspiro[2.3]hexan-1-yl)-5,6-dihydro-4H-[1,4]oxazepino[5,6,7-de]quinazolin-9-yl)-7-fluorobenzo[b]thiophene-3-carbonitrile] | < 500
7 | < 100 | < 100 | < 100 | < 100 | < 5000 | < 5000 | C#Cc1c(F)ccc2cc(O)cc(-c3nc4c5c(nc(OC[C@@]67CCCN6C[C@H](F)C7)nc5c3F)N(C3CCCOC3)CCO4)c12 (stereo partly drawn) [Compound 661, 5-ethynyl-6-fluoro-4-(4-fluoro-2-(((2R,7aS)-2-fluorotetrahydro-1H-pyrrolizin-7a(5H)-yl)methoxy)-10-(tetrahydro-2H-pyran-3-yl)-9,10-dihydro-8H-7-oxa-1,3,6,10-tetraazacyclohepta[de]naphthalen-5-yl)naphthalen-2-ol] | < 500
8 | < 100 | < 100 | < 100 | < 100 | < 5000 | < 5000 | CN1c2nc(OC[C@@]34CCCN3C[C@H](F)C4)nc3c(F)c(-c4ccc(F)c5sc(N)c(C#N)c45)c(Cl)c(c23)OC[C@@H]1CN [Compound 1113, 2-amino-4-((5S)-5-(aminomethyl)-8-chloro-10-fluoro-2-(((2R,7aS)-2-fluorotetrahydro-1H-pyrrolizin-7a(5H)-yl)methoxy)-4-methyl-5,6-dihydro-4H-[1,4]oxazepino[5,6,7-de]quinazolin-9-yl)-7-fluorobenzo[b]thiophene-3-carbonitrile] | < 500
9 | < 100 | < 100 | < 100 | < 100 | < 5000 | < 5000 | COCC(C)N1CCOc2c(Cl)c(-c3ccc(F)c4sc(N)c(C#N)c34)c(F)c3nc(OC[C@@]45CCCN4C[C@H](F)C5)nc1c23 (stereo partly drawn) [Compound 670, 2-amino-4-(8-chloro-10-fluoro-2-(((2R,7aS)-2-fluorotetrahydro-1H-pyrrolizin-7a(5H)-yl)methoxy)-4-(1-methoxypropan-2-yl)-5,6-dihydro-4H-[1,4]oxazepino[5,6,7-de]quinazolin-9-yl)-7-fluorobenzo[b]thiophene-3-carbonitrile] | < 500
10 | < 100 | < 100 | < 100 | < 100 | < 5000 | < 5000 | N#Cc1c(N)sc2c(F)ccc(-c3c(Cl)c4c5c(nc(OC[C@@]67CCCN6C[C@H](F)C7)nc5c3F)N(C3CCn5nccc5C3)CCO4)c12 (stereo partly drawn) [Compound 893, 2-amino-4-(8-chloro-10-fluoro-2-(((2R,7aS)-2-fluorotetrahydro-1H-pyrrolizin-7a(5H)-yl)methoxy)-4-(4,5,6,7-tetrahydropyrazolo[1,5-a]pyridin-5-yl)-5,6-dihydro-4H-[1,4]oxazepino[5,6,7-de]quinazolin-9-yl)-7-fluorobenzo[b]thiophene-3-carbonitrile] | < 500
11 | < 100 | < 100 | < 100 | < 100 | < 5000 | < 5000 | N#Cc1c(N)sc2c(F)ccc(-c3c(Cl)c4c5c(nc(OC[C@@]67CCCN6C[C@H](F)C7)nc5c3F)N(C3C5CC3N(C=O)C5)CCO4)c12 (stereo partly drawn) [Compound 654, 2-amino-4-(8-chloro-10-fluoro-2-(((2R,7aS)-2-fluorotetrahydro-1H-pyrrolizin-7a(5H)-yl)methoxy)-4-(2-formyl-2-azabicyclo[2.1.1]hexan-5-yl)-5,6-dihydro-4H-[1,4]oxazepino[5,6,7-de]quinazolin-9-yl)-7-fluorobenzo[b]thiophene-3-carbonitrile] | < 500
12 | < 100 | < 100 | < 100 | < 100 | < 5000 | < 5000 | N#Cc1c(N)sc2c(F)ccc(-c3c(Cl)c4c5c(nc(OC[C@@]67CCCN6C[C@H](F)C7)nc5c3F)N(C3COCCOC3)CCO4)c12 [Compound 803, 2-amino-4-(8-chloro-4-(1,4-dioxepan-6-yl)-10-fluoro-2-(((2R,7aS)-2-fluorotetrahydro-1H-pyrrolizin-7a(5H)-yl)methoxy)-5,6-dihydro-4H-[1,4]oxazepino[5,6,7-de]quinazolin-9-yl)-7-fluorobenzo[b]thiophene-3-carbonitrile] | < 500
